The source of these data is paper PMC11079029, “Intramolecular autoinhibition regulates the selectivity of PRPF40A tandem WW domains for proline-rich motifs” (Nature Communications, 2024).

Where two headings read alike, the source gives them in different places. No end group written: not given here.

The test concerns the target T1, PRPF40A WW12 (tandem WW domains, residues 141–236) (Homo sapiens, UniProt O75400).
T1 construct: WW12 141–236, WW12long 141–248, and N-ext-WW12 56–236; 6xHis-TEV site (N, cleaved yes); made in house; host or cells: Escherichia coli BL21(DE3)
Description: ITC of PRPF40A WW12 with GB1-tagged proline-rich peptides and constructs. The test is classed as binding. Particulars: for N (sites): ITC as E1, peptide in the cell, N >1 = more than one WW tandem per peptide; for DH: ITC binding enthalpy; for Kd: ITC. The text has this:
PRPF40A isoform 1 sequences (N-ter 1–310, WW12short 141–223, WW12 141–236, WW12long 141–248, and N-ext-WW12 56–236) were amplified from a purchased DNA fragment (IDT) and cloned using NcoI and KpnI restriction sites into a pETM11 vector encoding 6xHis and TEV cleavage site as a N-terminal tag. SF1 (Pro A 410–468, Pro B 468–539, Pro C 539–594, Pro D 594–639, Pro BC 468–594, Pro CD 539–639, Pro BCD 468–639 and Pro ABCD 410–639) and SF3A1 (Middle Pro 364–413 and C-ter Pro 552–683) constructs were prepared in a similar manner using a pET24 vector with a 6xHis, GB1 and TEV cleavage site as N-terminal fusion cassette. 16-mer SF1 constructs (Table 1) and polyproline peptides (P6, P8, P10, P13, P16, P19, P22, P25, and P29) were cloned in the same pET24 vector with GB1 tag by direct ligation of purchased oligonucleotides (Eurofins). All peptide sequences contained N and C-terminal common residues to avoid boundary effects on binding: TEVsite-GAMSGS-peptide-SGSN. Mutants of PRPF40A WW12 and N-ext-WW12 constructs were prepared by site-directed mutagenesis. The truncated version of PRPF40A WW12 (141-217) was a gift from Dr. María Macías (IRB, Spain). All used oligonucleotides were purchased from Eurofins Genomics and are shown in Supplementary Table 6.
Resuspended cell pellets in 20 mM Tris pH 8.0, 500 mM NaCl, 10 mM imidazole, 0.5 mM TCEP, and protease inhibitors mix (SERVA) were lysed by cell disruption in a French press. Clear lysates, after centrifugation (at 18,000 g) and filtering, were loaded into Ni-NTA resin. The resin was then washed with 20 mM imidazole containing buffer, and the desired protein was eluted with 500 mM imidazole. PRPF40A constructs were then subjected to TEV protease treatment (homemade at a final concentration of ≈50 μg/ml), dialyzed overnight at 4 °C against an imidazole-free buffer, and then loaded again to Ni-NTA resin; desired digested proteins were obtained in the flow-through and wash fractions while uncleaved protein, TEV protease, and impurities remained bound to the resin. Cleaved PRPF40A proteins and GB1-tagged SF1, SF3A1, and polyproline constructs were further purified by size-exclusion chromatography on a HiLoad 16/60 Superdex 75 column (GE Healthcare) equilibrated with 20 mM sodium phosphate, pH 6.5, 100 mM NaCl and 1 mM DTT buffer. For the purification of PRPF40A WW12 in complex with SF1 peptide, cell pellets of recombinant expression for both proteins were mixed and processed together following the Ni-NTA—TEV digestion—reverse Ni-NTA—SEC-75 protocol; where the complex remained bound in a 1:1 stoichiometry throughout the whole purification (corroborated by NMR). Molecular weight of each sample was confirmed by mass spectrometry, purity was checked by PAGE-SDS, and protein concentrations were determined from the aromatic contribution to the UV absorbance spectra at 280 nm.
Experiments were conducted on a MicroCAl PEAQ-ITC (Malvern Instruments, UK) at 25 °C in 20 mM sodium phosphate pH 6.5 and 100 mM NaCl. PRPF40A was titrated into N-terminal GB1 tagged SF1 or polyproline constructs and vice versa with similar results. Protein concentrations in the cell were around 20–40 μM, while in the syringe ranged between 200 and 500 μM. Experiments were performed at least in duplicate with injections of 1.5 μL (0.4 μL for first point) separated by 150 s delays to recover thermal power baseline and continuous stirring in the cell (750 rpm) for correct mixing. The reference cell was filled with water in all experiments. Data were processed by removing the blank experiment (using digested GB1 fusion protein) and adjusted to one-site binding model with Malvern PEAQ-ITC Analysis software (Malvern Instruments, UK).

[1] abbreviates: 25 °C, 20 mM sodium phosphate pH 6.5, 100 mM NaCl, GB1-tagged polyproline or SF1 16-mer peptide in the cell, WW tandem in the syringe, one-site model, apparent Kd, average of at least duplicates, read-out: Kd.
The mark [2] stands for this setting: SF1 peptides, individual value 1 (replicate 1), read-out: Kd Values with WW12, individual value.
Setting [3] is: SF1 peptides, individual value 2 (replicate 2), read-out: Kd Values with WW12, individual value.
[4] abbreviates: SF1 peptides, individual value 3 (replicate 3), read-out: Kd Values with WW12, individual value.

T1 sequence (O75400 141-236): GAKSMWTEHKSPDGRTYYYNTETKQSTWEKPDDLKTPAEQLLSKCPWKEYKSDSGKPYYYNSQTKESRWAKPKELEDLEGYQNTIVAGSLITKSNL

“MPPFGMPPAPPPPPPQ [SF1_623–638, GB1-tagged 16-mer from the SF1 C-terminal region]”: the “N (sites)” value (WW tandem in the syringe) is recorded as 0.95 ± 0.10 sites. Besides, the “DH” value (as E1) is -10.7 ± 3.54 kcal/mol. Besides, the Kd is, setting by setting: under setting [1], 23.3 ± 13.3 µM; under setting [2], 21.8 µM; under setting [3], 24.8 µM.
For “MPPPPPPPSGQPPPPP [SF1_478–493, GB1-tagged 16-mer from the SF1 C-terminal region]”, the “N (sites)” value (WW tandem in the syringe) is given as 0.80 ± 0.11 sites. For the same substance, under “as E1”, the “DH” value is -14.3 ± 0.956 kcal/mol. The Kd runs as follows: under setting [1], 9.59 ± 0.9 µM; under setting [2], 8.26 µM; under setting [3], 10.3 µM; under setting [4], 10.2 µM.
Turning to “MQPPPPPMNQGPHPPG [SF1_425–440, GB1-tagged 16-mer from the SF1 C-terminal region]”, the “N (sites)” value (WW tandem in the syringe) worked out at 0.87 ± 0.07 sites. Also, for the setting “as E1”, the “DH” value was -13.3 ± 1.41 kcal/mol. Also, the Kd reads like this: under setting [1], 20.2 ± 3.1 µM; under setting [2], 15.9 µM; under setting [3], 21.8 µM; under setting [4], 22.9 µM.
As for “MYAPPPPPPPPMDPSN [SF1_596–611, GB1-tagged 16-mer from the SF1 C-terminal region]”, for the setting “WW tandem in the syringe”, the “N (sites)” value was determined as 1.10 ± 0.30 sites. Also, for the setting “as E1”, the “DH” value is -10.9 ± 8.8 kcal/mol. Besides, the Kd under setting [1] came out at 65.9 ± 50.7 µM.
“P10: recombinant GB1-tagged polyproline peptide, 10 prolines (GB1-GAMSGSPPPPPPPPPPSGSN; not fully specified)”: the “N (sites)” value (WW tandem in the syringe) was 0.89 ± 0.11 sites. For the same substance, the “DH” value (as E1) was -9.63 ± 1.24 kcal/mol.
As to “P13: recombinant GB1-tagged polyproline peptide, 13 prolines (GB1-GAMSGSPPPPPPPPPPPPPSGSN; not fully specified)”, the “N (sites)” value (WW tandem in the syringe) came to 0.78 ± 0.07 sites. The “DH” value (as E1) was -15.7 ± 1.54 kcal/mol.
In the case of “P16: recombinant GB1-tagged polyproline peptide, 16 consecutive proline residues (GB1-GAMSGSPPPPPPPPPPPPPPPPSGSN; also: His6 tag state not given here)”, for the setting “WW tandem in the syringe”, the “N (sites)” value was determined as 0.88 ± 0.08 sites. Besides, under “as E1”, the “DH” value was -15.2 ± 0.621 kcal/mol.
In the case of “P19: recombinant GB1-tagged polyproline peptide, 19 prolines (GB1-GAMSGSPPPPPPPPPPPPPPPPPPPSGSN; also: His6 tag state not given here)”, under “WW tandem in the syringe”, the “N (sites)” value came out at 1.10 ± 0.04 sites. Moreover, the “DH” value (as E1) was -18.2 ± 0.837 kcal/mol.
Turning to “P22: recombinant GB1-tagged polyproline peptide, 22 prolines (GB1-GAMSGSPPPPPPPPPPPPPPPPPPPPPPSGSN; also: His6 tag state not given here)”, the “N (sites)” value (WW tandem in the syringe) amounted to 1.39 ± 0.03 sites. The “DH” value (as E1) is -18.6 ± 0.574 kcal/mol.
The like results for “P25: recombinant GB1-tagged polyproline peptide, 25 prolines (GB1-GAMSGSPPPPPPPPPPPPPPPPPPPPPPPPPSGSN; also: His6 tag state not given here)” were, in that order, 2.30 ± 0.09 sites and -16.6 ± 0.645 kcal/mol.
For the substance “P29: recombinant GB1-tagged polyproline peptide, 29 prolines (GB1-GAMSGSPPPPPPPPPPPPPPPPPPPPPPPPPPPPPSGSN; also: His6 tag state not given here)”, the “N (sites)” value (WW tandem in the syringe) is reported as 2.47 ± 0.09 sites. Also, the “DH” value (as E1) was -15.8 ± 0.502 kcal/mol.
Take “SF1 Pro A: GB1-tagged SF1 construct, residues 410–468 (GB1-GHPMQHNPNGPPPPWMQPPPPPMNQGPHPPGHHGPPPMDQYLGSTPVGSGVYRLHQGKG; also: His6 tag state not given here)”: the “DH” value (as E4) was -15.1 ± 3.54 kcal/mol.
“SF1 Pro C: GB1-tagged SF1 construct, residues 539–594, contains the WWbs 16-mer (GB1-GSIPPWQQQQAAAAASPGAPQMQGNPTMVPLPPGVQPPLPPGAPPPPPPPPPGSAG; also: His6 tag state not given here)”: the “DH” value (as E4) was -20.6 ± 0.22 kcal/mol.
On to “SF1 Pro D: GB1-tagged SF1 construct, residues 594–639 (GB1-GMMYAPPPPPPPPMDPSNFVTMMGMGVAGMPPFGMPPAPPPPPPQN; also: His6 tag state not given here)”, for which the “DH” value (as E4) was -16 ± 4.52 kcal/mol.
Regarding “SF3A1 Middle Pro: GB1-tagged SF3A1 construct, residues 364–413, contains a PPLP motif (GB1-EGQKVPPPPETPMPPPLPPTPDQVIVRKDYDPKASKPLPPAPAPDEYLVS; also: His6 tag state not given here)”, for the setting “as E4”, the “DH” value was -27.25 ± 6.48 kcal/mol.
Turning to “TMVPLPPGVQPPLPPG [SF1_565–580, GB1-tagged 16-mer from the SF1 C-terminal region]”, the “N (sites)” value (WW tandem in the syringe) is 1.06 ± 0.11 sites. The “DH” value (as E1) was -13.5 ± 1.96 kcal/mol. Also, the Kd under setting [2] amounted to 24 µM; the Kd under setting [3] is 37.8 µM; the Kd under setting [4] stood at 23.4 µM; the Kd (SF1 peptides, individual value 4 (replicate 4), read-out: Kd Values with WW12, individual value) was 36.5 µM.
